Earlier results, collected in patent publication US12324430B2, “Topical antiseptic system” (INFECTION CONTAINMENT COMPANY, LLC, priority 2015, dated 2025).

Substance	water solubility (in words)
zinc glycerate	moderately water soluble
zinc picolinate	moderately water soluble
